{"source": "patent US20160030415A1", "about": "“TREATMENT AND PROPHYLAXIS OF KIDNEY DISEASES” (priority 2013, published 2016)", "key": {"[1]": {"system": "STZ induced diabetic nephropathy in rats", "assay": "Study 4: HCQ and its combination with Losartan, Telmisartan, Azilsartan and Ramipril, with Glimepiride control", "type": "in vivo, Wistar rats", "details": "dose mg/kg: HCQ 70, GLM 1", "experimental": "The methods described in Terri et al, Diabetes Volume, 1997, 46:1612-1618, and Takashi et al, Jpn J. Pharmacol, 1997, 75, 59-64, were followed for inducing Diabetes in rats by injecting Streptozotocin. The Efficacy of the drugs was tested in two different models, one involving comparison with diabetic control (i.e. Diabetic Rats not treated with any medication) and the other involving comparison with the anti-diabetic control group (i.e. Diabetic rats administered Glimepiride) in two separate studies.\nWistar rats of either sex weighing 150-200 g were divided randomly into 28 groups consisting of 6 animals each. Diabetes was induced in rats by single administration of streptozotocin (55 mg/kg/i.p) dissolved in 0.1 M-citrate buffer, pH 4.5. Group 1 (normal control) consisted of normal rats that neither received streptozotocin nor any test drug; Group 2 served as Diabetic control; Group 3 was diabetic rats treated with Hydroxychloroquine (35 mg/kg); Group 4 was diabetic rats treated with Hydroxychloroquine (45 mg/kg) and Group 5 was diabetic rats treated with Hydroxychloroquine (70 mg/kg); Group 6 was diabetic rats treated with Losartan (5.5 mg/kg); Group 7 was diabetic rats treated with Losartan (11 mg/kg); Group 8 was diabetic rats treated with combination of Losartan (5.5 mg/kg) and Hydroxychloroquine (45 mg/kg); Group 9 was diabetic rats treated with combination of Losartan (11 mg/kg) and Hydroxychloroquine (35 mg/kg); Group 10 was diabetic rats treated with Ramipril (0.6 mg/kg); Group 11 was diabetic rats treated with Ramipril (0.3 mg/kg); Group 12 was diabetic rats treated with combination of Ramipril (0.6 mg/kg) and Hydroxychloroquine (35 mg/kg); Group 13 was diabetic rats treated with combination of Ramipril (0.3 mg/kg) and Hydroxychloroquine (45 mg/kg); Group 14 was diabetic rats treated with combination of Ramipril (0.6 mg/kg) and Hydroxychloroquine (45 mg/kg); Group 15 was diabetic rats treated with combination of Ramipril (0.3 mg/kg) and Hydroxychloroquine (35 mg/kg); Group 16 was diabetic rats treated with Telmisartan (9.5 mg/kg); Group 17 was diabetic rats treated with Telmisartan (4.5 mg/kg); Group 18 was diabetic rats treated with combination of Telmisartan (9.5 mg/kg) and Hydroxychloroquine (35 mg/kg); Group 19 was diabetic rats treated with combination of Telmisartan (4.5 mg/kg) and Hydroxychloroquine (45 mg/kg); Group 20 was diabetic rats treated with combination of Telmisartan (9.5 mg/kg) and Hydroxychloroquine (45 mg/kg); Group 21 was diabetic rats treated with combination of Telmisartan (4.5 mg/kg) and Hydroxychloroquine (35 mg/kg); Group 22 was diabetic rats treated with Azilsartan (4.5 mg/kg); Group 23 was diabetic rats treated with Azilsartan (2.5 mg/kg); Group 24 was diabetic rats treated with combination of Azilsartan (4.5 mg/kg) and Hydroxychloroquine (35 mg/kg); Group 25 was diabetic rats treated with combination of Azilsartan (2.5 mg/kg) and Hydroxychloroquine (45 mg/kg); Group 26 was diabetic rats treated with combination of Azilsartan (4.5 mg/kg) and Hydroxychloroquine (45 mg/kg); Group 27 was diabetic rats treated with combination of Azilsartan (2.5 mg/kg) and Hydroxychloroquine (35 mg/kg); Group 28 served as Anti-Diabetic control wherein diabetic rats were treated with antidiabetic drug Glimepiride (GLM) (1 mg/kg).\nThe study drugs were dissolved/suspended in vehicle and administered orally once a day for eight weeks. The diabetes mellitus induced nephropathy was assessed by estimating the level of serum urea, serum creatinine and total serum protein content after completion of eighth week of study. TBARS, GSH and Total Protein were measured as markers of renal oxidative stress in Kidney Homogenate after completion of eighth week of study. Blood glucose levels were also assessed at weekly interval."}, "[2]": {"system": "Streptozotocin (STZ) induced diabetic rats", "assay": "Study 2: HCQ and its combination with Losartan in comparison with anti-diabetic control (Glimepiride) in renal damage", "type": "in vivo, Wistar rats", "experimental": "The Efficacy of the drugs was tested in two different models, one involving comparison with diabetic control (i.e. Diabetic Rats not treated with any medication) and the other involving comparison with the anti-diabetic control group (i.e. Diabetic rats administered Glimepiride) in two separate studies. 30 Wistar rats of either sex weighing 150-250 g were divided randomly into 5 groups consisting of 6 animals each. Diabetes was induced in rats by single administration of Streptozotocin (STZ)(55 mg/kg/i.p) dissolved in 0.1 M-citrate buffer, pH 4.5. Group 1 (normal control) consisted of normal rats that neither received streptozotocin nor any test drug; Group 2 served as Anti-Diabetic control wherein diabetic rats were treated with antidiabetic drug Glimepiride. Group 3 was diabetic rats treated with Losartan (11 mg/kg); Group 4 was diabetic rats treated with Hydroxychloroquine (45 mg/kg) and Group 5 was diabetic rats treated with combination of Hydroxychloroquine (45 mg/kg) and Losartan (11 mg/kg). The study drugs were dissolved/suspended in distilled water and administered orally once a day for eight weeks. The diabetes mellitus induced nephropathy was assessed by estimating the level of serum creatinine and total serum protein content after completion of eighth week of study. TBARS and Total Protein were measured as markers of renal oxidative stress in Kidney Homogenate after completion of eighth week of study."}, "[3]": {"details": "kidney homogenate, after 8th week"}, "[4]": {"details": "Glimepiride 8 mg/kg alone (antidiabetic control) or with Losartan 11 mg/kg and/or Hydroxychloroquine 45 mg/kg, oral once daily"}, "[5]": {"details": "after 8th week, Glimepiride 8 mg/kg alone or with Losartan 11 mg/kg and/or Hydroxychloroquine 45 mg/kg"}, "[6]": {"details": "kidney homogenate, after 8th week, Glimepiride 8 mg/kg alone or with Losartan 11 mg/kg and/or Hydroxychloroquine 45 mg/kg"}}, "note": "Marks after values point to notes of the source that are not given here.", "data": [{"smiles": "CCC1=C(C)CN(C(=O)NCCc2ccc(S(=O)(=O)NC(=O)N[C@H]3CC[C@H](C)CC3)cc2)C1=O", "note": "[Glimepiride]", "values": [{"measurement": "HDL", "setting": "[1]; after 8th week", "result": "29 ± 1.41", "unit": "mg/dL"}, {"measurement": "TC", "setting": "[1]; after 8th week", "result": "142 ± 2.68", "unit": "mg/dL"}, {"measurement": "TG", "setting": "[1]; after 8th week", "result": "96.5 ± 2.35", "unit": "mg/dL"}, {"measurement": "Glucose Day1", "setting": "[1]; blood, Day1", "result": "276.83 ± 19.14", "unit": "mg/dL"}, {"measurement": "Glucose Day14", "setting": "[1]; blood, Day14", "result": "216.67 ± 18.44", "unit": "mg/dL"}, {"measurement": "Glucose Day28", "setting": "[1]; blood, Day28", "result": "179.17 ± 7.36", "unit": "mg/dL"}, {"measurement": "Glucose Day42", "setting": "[1]; blood, Day42", "result": "159 ± 6.07", "unit": "mg/dL"}, {"measurement": "Glucose Day56", "setting": "[1]; blood, Day56", "result": "149.17 ± 7.83", "unit": "mg/dL"}, {"measurement": "GSH", "setting": "[1]; [3]", "result": "2.36 ± 0.64", "unit": "nM/mg"}, {"measurement": "TBARS", "setting": "[1]; [3]", "result": "0.5 ± 0.13", "unit": "nM/mg"}, {"measurement": "Total protein kidney", "setting": "[1]; [3]", "result": "856.83 ± 18.18", "unit": "µg/mL"}, {"measurement": "Creatinine", "setting": "[1]; serum, after 8th week", "result": "3.21 ± 0.23", "unit": "mg/dL"}, {"measurement": "Total protein", "setting": "[1]; serum, after 8th week", "result": "4.8 ± 0.18", "unit": "g/dL"}, {"measurement": "Urea", "setting": "[1]; serum, after 8th week", "result": "43 ± 2.1*^ mg/dl"}, {"measurement": "Serum Creatinine after 8th week", "setting": "[2]; [4]", "result": 3.17, "unit": "mg/dL"}, {"measurement": "Serum Creatinine after 8th week (% Control)", "setting": "[2]; [4]", "result": "(100) % Control"}, {"measurement": "Total Serum Protein Levels after 8th week", "setting": "[2]; [4]", "result": 4.73, "unit": "g/dL"}, {"measurement": "Total Serum Protein Levels after 8th week (% Control)", "setting": "[2]; [4]", "result": "(100) % Control"}, {"measurement": "Total Protein in Kidney Homogenate (% Control)", "setting": "[2]; [5]", "result": "(100) % Control"}, {"measurement": "Total Protein in Kidney Homogenate Mean", "setting": "[2]; [5]", "result": 926.67, "unit": "µg/mL"}, {"measurement": "TBARS (% Control)", "setting": "[2]; [6]", "result": "(100) % Control"}, {"measurement": "TBARS Mean", "setting": "[2]; [6]", "result": 0.82, "unit": "nM/mg"}]}]}
